In patent publication US5100591A, “Process for preparing lipid microparticles” (Medgenix Group S.A., priority 1989, dated 1992):
≈ marks a conversion by molar mass, not a printed value.

Columns and labels:
[1] = Stability of amphotericin B solutions by HPLC analysis; conditions: for Stability in methanol solution in acid medium: topical grade
Protocol: The stability of the amphotericin B solutions was recorded by HPLC analysis using a reversed-phase column (C18 Bondapak, 25×0.5 cm, Waters Associates). A CH3 CN/10 mM acetate buffer, pH 7, system (39:61) was used as eluent. UV recording was performed at 404 and 362 nm. The flow rate was 2 ml/min. The retention time (RT) of amphotericin B is 9.5 minutes. Results were expressed as the percentage of the peak area.

[2] = acetic acid and ammonia NH3 in methanol, two equivalents, 5 mg/ml in CH3OH

`C[C@@H]1[C@H](O)[C@@H](C)/C=C/C=C/C=C/C=C/C=C/C=C/C=C/[C@H](O[C@@H]2O[C@H](C)[C@@H](O)[C@H](N)[C@@H]2O)C[C@@H]2O[C@](O)(C[C@@H](O)C[C@@H](O)[C@H](O)CC[C@@H](O)C[C@@H](O)CC(=O)O[C@H]1C)C[C@H](O)[C@H]2C(=O)O` [amphotericin B] gave a solubility (physchem; ch3oh + 1.0 eq. hcl, organic solvent or mixture, Solubility of i.v. grade amphotericin B) of 5000 µg/mL, a solubility (physchem; ch3oh + 1.0 eq. naoh, organic solvent or mixture, Solubility of i.v. grade amphotericin B) of 5000 µg/mL and a solubility (physchem; ch3oh + 1.5 eq. hcl, organic solvent or mixture, Solubility of topical grade amphotericin B) of 5000 µg/mL. For the same compound, the solubility (physchem; ch3oh + 1.5 eq. naoh, organic solvent or mixture, Solubility of topical grade amphotericin B) was 5000 µg/mL, the solubility (physchem; ch3oh, acid, organic solvent or mixture, Solubility of amphotericin B) was 3000 to 5000 µg/mL (≈ 3250 to 5410 µM) and the solubility (physchem; ch3oh, basic, organic solvent or mixture, Solubility of amphotericin B) was 2000 to 3000 µg/mL (≈ 2160 to 3250 µM). For the same compound, the solubility (physchem; ch3oh, neutral, organic solvent or mixture, Solubility of amphotericin B) was 200 to 400 µg/mL (≈ 216 to 433 µM), the solubility (physchem; ch3oh, organic solvent or mixture, Solubility of i.v. grade amphotericin B) was 150 µg/mL (≈ 162 µM) and the solubility (physchem; ch3oh, organic solvent or mixture, Solubility of topical grade amphotericin B) was 130 µg/mL (≈ 141 µM). For the same compound, the solubility (physchem; dimethylacetamide, organic solvent or mixture, Solubility of amphotericin B in DMA) was 6000 µg/mL (≈ 6490 µM), the solubility (physchem; dimethylformamide, acid, organic solvent or mixture, Solubility of amphotericin B) was 60000 to 80000 µg/mL (≈ 64900 to 86600 µM) and the solubility (physchem; dimethylformamide, neutral, organic solvent or mixture, Solubility of amphotericin B) was 2000 to 4000 µg/mL (≈ 2160 to 4330 µM). The solubility (physchem; h2o, acid, Solubility of amphotericin B) was 100 µg/mL (≈ 108 µM), the solubility (physchem; h2o, basic, Solubility of amphotericin B) was 100 µg/mL (≈ 108 µM) and the “Stability of neutral CH3OH solution” value ([1]; 0.1 mg/ml, 4° C.) was “stable for several days”. The “Effect of neutralization with methanolic HCl on stability” value ([1]; basic CH3OH solution) was “no effect on the stability”, the “Effect of addition of an excess of NaOH on stability” value ([1]; excess of NaOH, methanolic solution) was “does not affect the stability” and the “Degradation in an acid medium” value ([1]; i.v. grade, methanol, one equivalent HCl, concentration greater than 2 mg/ml) was “increases greatly”. The “Stability in methanolic NaOH solution” value ([1]; i.v. grade, one equivalent NaOH, up to 5 mg/ml) was “good stability”, the “Stability in methanol solution in acid medium” value ([1]; 0.1 mg/ml, 1.5 eq. HCl) was “stable” and the “Stability in methanol solution in acid medium” value ([1]; 5 mg/ml, acid medium (HCl)) was “degraded”. The “Dissolution of amphotericin B” value [2] was “do not dissolve”.
